# US11382956B2, “Amylin analogues” (Zealand Pharma A/S, priority 2016, dated 2022)
# pEC50: −log10 of the molar value. Numbered stars: 1 amine (or outer) side, 2 acyl side, 3 side chain; on linkers, the order of the positions; unused ones are H or OH. Bridge positions count the residues as written; N and C are the ends. Square brackets hold non-standard residues; d marks the D form. Peptide text beside a SMILES is read from it. * marks the point of attachment. C20 diacid = O=C(O)CCCCCCCCCCCCCCCCCCC(=O)*; γGlu = O=C(O)[C@H](CCC(=O)[*:2])N[*:1]; Hyp = O=C(O)[C@@H]1C[C@@H](O)CN1; NMeI = CC[C@H](C)[C@H](NC)C(=O)O; Aad = N[C@@H](CCCC(=O)O)C(=O)O; Sar = CNCC(=O)O
# Tests used:
# [1] = biological target: T1, recombinant human amylin 3 receptor (hAMYR3) (Homo sapiens, UniProt O60896+P30988); experiment: hAMYR3 cAMP assay (AlphaScreen) in 1321N1 cells; assay type: cell-based; details: cAMP formation, 45 min stimulation
# T1 construct: host or cells: human astrocytoma cell line 1321N1
# T1 sequence (P30988 25-474): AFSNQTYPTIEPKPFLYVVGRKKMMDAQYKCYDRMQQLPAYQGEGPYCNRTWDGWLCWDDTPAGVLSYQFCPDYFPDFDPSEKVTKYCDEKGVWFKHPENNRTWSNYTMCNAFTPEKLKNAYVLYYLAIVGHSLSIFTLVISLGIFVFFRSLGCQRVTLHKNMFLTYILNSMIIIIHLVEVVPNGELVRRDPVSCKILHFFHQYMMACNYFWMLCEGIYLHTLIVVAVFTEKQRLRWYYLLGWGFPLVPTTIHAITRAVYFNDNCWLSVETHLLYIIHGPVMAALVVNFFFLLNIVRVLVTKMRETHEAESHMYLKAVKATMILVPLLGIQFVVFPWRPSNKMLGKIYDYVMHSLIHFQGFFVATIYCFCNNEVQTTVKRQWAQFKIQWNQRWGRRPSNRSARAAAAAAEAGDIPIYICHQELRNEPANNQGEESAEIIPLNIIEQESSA
# T1 sequence (O60896 24-148 partner): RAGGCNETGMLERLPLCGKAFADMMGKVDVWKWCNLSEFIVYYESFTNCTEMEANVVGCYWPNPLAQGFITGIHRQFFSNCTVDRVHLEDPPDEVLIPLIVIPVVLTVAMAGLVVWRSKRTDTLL
# Outline: (§1)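 1321N1 astrocytoma cells expressing recombinant human calcitonin receptor alone or with RAMP3 (AMY3) stimulated 45 min at room temperature with peptide in IBMX-containing buffer. cAMP quantified by AlphaScreen after 1 h bead incubation; EC50 fitted from at least 7 concentrations.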
# [2] = biological target: T2, recombinant human calcitonin receptor (hCT-R) (Homo sapiens, UniProt P30988); experiment: hCT-R cAMP assay (AlphaScreen) in 1321N1 cells; assay type: cell-based; details: cAMP formation, 45 min stimulation
# T2 construct: host or cells: human astrocytoma cell line 1321N1
# T2 sequence (P30988 25-474): T1 sequence (P30988 25-474)
# Outline: as §1
# [3] = Assessment of chemical stability in 40 mM buffers at 40° C. (RP-HPLC); assay type: physicochemical; details: 1 mg/mL; for % degradation after 72 h at 40° C. pH6 phosphate: phosphate buffer pH 6, 72 h; for % degradation after 14 days at 40° C. pH6 phosphate: phosphate buffer pH 6, 14 days; for % degradation after 72 h at 40° C. pH7 phosphate: phosphate buffer pH 7, 72 h
# Outline: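 Peptides at 1 mg/mL in 40 mM acetate pH 4 or phosphate pH 6 and 7 were held at 40° C for 3 and 14 days. Main-peak area-% by C8 RP-HPLC, UV 220 nm; % degradation = change in main-peak area-% versus t=0.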
# [4] = Effect on acute food intake and body weight in normal Sprague Dawley rats; assay type: in vivo, Sprague Dawley (SD) rats; details: Dose: 30 nmol/kg sc, vehicle-corrected
# From the text: Sprague Dawley (SD) rats were obtained from Janvier Labs, France. The animals arrived at least 14 days before the study start to allow acclimatization to experimental conditions. From arrival and throughout the study, the rats were housed in groups of 2 to 4 (n=2-4) in a light-, temperature- and humidity-controlled room. Animals had access ad libitum to food (KLIBA 3430, Provimi Kliba AG, Switzerland) and water (domestic quality tap water) during the entire study. Per group 6-8 rats were included. A vehicle group and positive control group were included in each set of tests. […] Dosing volume was 2 ml/kg. Food intake was recorded online using an automated food intake system (HM02, MBRose, Denmark) for 4 days or manually at 0 h for a predose and then 24, 48, 72 and 96 h post dosing. Body weight was measured daily.
# Statistical analyses were performed using GraphPad™ Prism version 7. The measured parameters were compared using two-way ANOVA followed by Dunnett's multiple comparison tests. Differences were considered statistically significant at p<0.05.
# [5] = Assessment of physical stability: fibril formation by Thioflavin T fluorescence; assay type: physicochemical; design: key: FND = fibrillation not detected; FD = fibrillation detected; details: 1 mg/mL peptide; for Fibrillation (in buffer) pH4 acetate: 50 mM acetate buffer pH 4.0, 96 hours at 40° C.; for Fibrillation (in buffer) pH7 histidine: 50 mM histidine buffer pH 7.0, 96 hours at 40° C.; for Fibrillation (in buffer) pH7 phosphate: 50 mM phosphate buffer pH 7.0, 96 hours at 40° C.
# Outline: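 Test peptide at 1 mg/mL with 40 μM ThT in 50 mM phosphate pH 7.0, 50 mM histidine pH 7.0, or 50 mM acetate pH 4.0, in triplicate. Fluorescence read every 10 min after 300 s agitation for 96 hours at 40° C; significant intensity rise scored as fibrillation detected (FD).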
Structure (SMILES),pEC50 [1],pEC50 [2],% degradation after 72 h at 40° C. pH6 phosphate [3],% degradation after 14 days at 40° C. pH6 phosphate [3],% degradation after 72 h at 40° C. pH7 phosphate [3],"% degradation after 14 days at 40° C. pH7 phosphate ([3]; phosphate buffer pH 7, 14 days)",Body weight reduction in % at 48 h [4],Food intake reduction in % at 48 h [4],Fibrillation (in buffer) pH4 acetate [5],Fibrillation (in buffer) pH7 histidine [5],Fibrillation (in buffer) pH7 phosphate [5],"% degradation after 72 h at 40° C. pH4 acetate ([3]; acetate buffer pH 4, 72 h)"
"CC[C@H](C)[C@@H](C(=O)N[C@@H](CC(C)C)C(=O)N[C@@H](CO)C(=O)N[C@@H](CO)C(=O)N[C@H](C(=O)N[C@@H](CCC(=O)O)C(=O)N[C@H](C(=O)NCC(=O)N[C@@H](CO)C(=O)N[C@@H](CC(N)=O)C(=O)N[C@H](C(=O)N1C[C@H](O)C[C@H]1C(N)=O)[C@@H](C)O)C(C)C)[C@@H](C)O)N(C)C(=O)[C@H](C)NC(=O)CN(C)C(=O)[C@H](Cc1ccccc1)NC(=O)[C@H](CO)NC(=O)[C@H](CO)NC(=O)[C@H](CCCNC(=N)N)NC(=O)[C@H](CCC(N)=O)NC(=O)[C@H](CC(C)C)NC(=O)[C@H](Cc1ccccc1)NC(=O)[C@H](CCCC(=O)O)NC(=O)[C@H](C)NC(=O)[C@H](CC(C)C)NC(=O)[C@H](CCCNC(=N)N)NC(=O)[C@H](CCC(=O)O)NC(=O)[C@@H](NC(=O)[C@H](C)NC(=O)[C@@H]1CCCCNC(=O)C[C@H](NC(=O)[C@H](CCC(=O)O)NC(=O)CC[C@H](NC(=O)CCCCCCCCCCCCCCCCCCC(=O)O)C(=O)O)C(=O)NCC(=O)N[C@@H]([C@@H](C)O)C(=O)N[C@@H](C)C(=O)N[C@@H]([C@@H](C)O)C(=O)N1)[C@@H](C)O [Compound 37, [19CD]-isoGlu-ED()GTATK()ATERLA-Aad-FLQRSSFGly(Me)-A-Ile(Me)-LSSTEVGSNT-Hyp-NH2] ({C20 diacid-γGlu}-EDGTATKATERLA[Aad]FLQRSSF[Sar]A[NMeI]LSSTEVGSNT[Hyp]-NH2; lactam 2-7)",10.51,9.94,<1%,<1%,3.0%,<1%,4.3%,24%,FD,FND,FND,
"CC[C@H](C)[C@@H](C(=O)N1CCC[C@H]1C(=O)N[C@@H](CO)C(=O)N[C@@H](CO)C(=O)N[C@H](C(=O)N[C@@H](CCC(=O)O)C(=O)N[C@H](C(=O)NCC(=O)N[C@@H](CO)C(=O)N[C@@H](CC(N)=O)C(=O)N[C@H](C(=O)N1C[C@H](O)C[C@H]1C(N)=O)[C@@H](C)O)C(C)C)[C@@H](C)O)N(C)C(=O)[C@H](C)NC(=O)CN(C)C(=O)[C@H](Cc1ccccc1)NC(=O)[C@H](CO)NC(=O)[C@H](CO)NC(=O)[C@H](CCCNC(=N)N)NC(=O)[C@H](CCC(N)=O)NC(=O)[C@H](CC(C)C)NC(=O)[C@H](Cc1ccccc1)NC(=O)[C@H](CCCC(=O)O)NC(=O)[C@H](C)NC(=O)[C@H](CC(C)C)NC(=O)[C@H](CCCNC(=N)N)NC(=O)[C@H](CCC(=O)O)NC(=O)[C@@H](NC(=O)[C@H](C)NC(=O)[C@@H]1CCCCNC(=O)C[C@H](NC(=O)[C@H](CCC(=O)O)NC(=O)CC[C@H](NC(=O)CCCCCCCCCCCCCCCCCCC(=O)O)C(=O)O)C(=O)NCC(=O)N[C@@H]([C@@H](C)O)C(=O)N[C@@H](C)C(=O)N[C@@H]([C@@H](C)O)C(=O)N1)[C@@H](C)O [Compound 30, [19CD]-isoGlu-ED()GTATK()ATERLA-Aad-FLQRSSF-Gly(Me)-A-Ile(Me)-PSSTEVGSNT-Hyp-NH2] ({C20 diacid-γGlu}-EDGTATKATERLA[Aad]FLQRSSF[Sar]A[NMeI]PSSTEVGSNT[Hyp]-NH2; lactam 2-7)",9.91,9.63,,,,,0%,<20%,FD,FND,FND,
"CC[C@H](C)[C@@H](C(=O)N[C@@H](CC(C)C)C(=O)N[C@@H](CO)C(=O)N[C@@H](CO)C(=O)N[C@H](C(=O)N[C@@H](CCC(=O)O)C(=O)N[C@H](C(=O)NCC(=O)N[C@@H](CO)C(=O)N[C@@H](CC(N)=O)C(=O)N[C@H](C(=O)N1C[C@H](O)C[C@H]1C(N)=O)[C@@H](C)O)C(C)C)[C@@H](C)O)N(C)C(=O)[C@H](C)NC(=O)CN(C)C(=O)[C@H](Cc1ccccc1)NC(=O)[C@H](CO)NC(=O)[C@H](CO)NC(=O)[C@H](CCCNC(=N)N)NC(=O)[C@H](CCC(N)=O)NC(=O)[C@H](CC(C)C)NC(=O)[C@H](Cc1ccccc1)NC(=O)[C@H](Cc1c[nH]cn1)NC(=O)[C@H](C)NC(=O)[C@H](CC(C)C)NC(=O)[C@H](CCCNC(=N)N)NC(=O)[C@H](CCC(N)=O)NC(=O)[C@@H](NC(=O)[C@H](C)NC(=O)[C@@H]1CCCCNC(=O)C[C@H](NC(=O)[C@H](CCCNC(=N)N)NC(=O)CC[C@H](NC(=O)CCCCCCCCCCCCCCCCCCC(=O)O)C(=O)O)C(=O)NCC(=O)N[C@@H]([C@@H](C)O)C(=O)N[C@@H](C)C(=O)N[C@@H]([C@@H](C)O)C(=O)N1)[C@@H](C)O [Compound 16, [19CD]-isoGlu-RD()GTATK()ATQRLAHFLQRSSF-Gly(Me)-A-Ile(Me)-LSSTEVGSNT-Hyp-NH2] ({C20 diacid-γGlu}-RDGTATKATQRLAHFLQRSSF[Sar]A[NMeI]LSSTEVGSNT[Hyp]-NH2; lactam 2-7)",10.46,10.37,,<1%,,,7.4%,66%,,,,
"CC[C@H](C)[C@@H](C(=O)N1CCC[C@H]1C(=O)N[C@@H](CO)C(=O)N[C@@H](CO)C(=O)N[C@H](C(=O)N[C@@H](CCC(=O)O)C(=O)N[C@H](C(=O)NCC(=O)N[C@@H](CO)C(=O)N[C@@H](CC(N)=O)C(=O)N[C@H](C(=O)N1C[C@H](O)C[C@H]1C(N)=O)[C@@H](C)O)C(C)C)[C@@H](C)O)N(C)C(=O)[C@H](C)NC(=O)CN(C)C(=O)[C@H](Cc1ccccc1)NC(=O)[C@H](CO)NC(=O)[C@H](CO)NC(=O)[C@H](CCCNC(=N)N)NC(=O)[C@H](CCC(N)=O)NC(=O)[C@H](CC(C)C)NC(=O)[C@H](Cc1ccccc1)NC(=O)[C@H](CCCC(=O)O)NC(=O)[C@H](C)NC(=O)[C@H](CC(C)C)NC(=O)[C@H](CCCNC(=N)N)NC(=O)[C@H](CCC(=O)O)NC(=O)[C@@H](NC(=O)[C@H](C)NC(=O)[C@@H]1CCCCNC(=O)C[C@H](NC(=O)[C@H](CCCNC(=N)N)NC(=O)CC[C@H](NC(=O)CCCCCCCCCCCCCCCCCCC(=O)O)C(=O)O)C(=O)NCC(=O)N[C@@H]([C@@H](C)O)C(=O)N[C@@H](C)C(=O)N[C@@H]([C@@H](C)O)C(=O)N1)[C@@H](C)O [Compound 34, [19CD]-isoGlu-RD()GTATK()ATERLA-Aad-FLQRSSF-Gly(Me)-A-Ile(Me)-PSSTEVGSNT-Hyp-NH2] ({C20 diacid-γGlu}-RDGTATKATERLA[Aad]FLQRSSF[Sar]A[NMeI]PSSTEVGSNT[Hyp]-NH2; lactam 2-7)",10.20,9.69,<1%,,2.8%,,,,FND,FND,FND,<1%
